Measurements as given in patent publication US12145947B2, “Pyrimidine based modulators and uses thereof” (Quanta Therapeutics, Inc., priority 2022, dated 2024).
pIC50: −log10 of the molar value. Like-named read-outs stand apart in the source and are kept apart here.

Assays:
[1] = test system: AGS cells (KRAS G12D), phospho-ERK; test: pERK In Cell Western (ICW) assay (Method B), AGS cells; format: cell-based; settings: Table 4, pERK, 3 hours, read-out: ICW-AGS
Method in brief: (§1)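 GP2D (10,000 cells/well) and AGS (5,000 cells/well) cells were treated for 3 h at 37 °C with a 10-point, ½-log dilution series (top […]). They were then fixed and immunostained for phospho-ERK. pERK signal was normalised to DRAQ5 and expressed as % of DMSO, with IC50 from a 4-parameter fit.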

[2] = test system: GP2D cells (KRAS G12D), phospho-ERK; test: pERK In Cell Western (ICW) assay, GP2D cells; format: cell-based; settings: Table 4, 3 hours
Method in brief: as §1

KRAS G12D/RAF1 = target: T1, KRAS G12D/RAF1 (Homo sapiens, UniProt P01116, G12D); test: Protein-protein interaction (PPI) HTRF assay KRAS G12D/RAF1; format: binding
T1 construct: His6-MBP (N, cleaved yes); made in house; host or cells: E. coli
T1 sequence (P01116 with tags, fused parts or gaps isoform P01116-2 G12D): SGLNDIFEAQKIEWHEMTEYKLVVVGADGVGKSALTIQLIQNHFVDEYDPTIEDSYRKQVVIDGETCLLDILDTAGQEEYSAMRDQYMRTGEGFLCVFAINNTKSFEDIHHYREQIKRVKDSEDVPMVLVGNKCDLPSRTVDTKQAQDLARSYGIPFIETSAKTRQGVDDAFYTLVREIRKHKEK
Method in brief: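 Biotinylated human KRAS (1-169; wt, G12D, G12V) or wt NRAS, GppNHp-loaded, pre-incubated 30 min RT with compound and streptavidin-d2, then His-RAF1 RBD (52-131) with anti-6His Tb cryptate added for 1 h RT. HTRF 665/615 ratio normalized to no compound (0%) and untagged RAF1 (100%); IC50.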

| Structure (SMILES) | pIC50 [1] | pIC50 ([2]; listed as 74.1) | pIC50 (KRAS G12D/RAF1; Table 4, listed as 74.1) | pIC50 ([1]; Homo sapiens) | pIC50 [2] | pIC50 (KRAS G12D/RAF1; Table 4) |
| --- | --- | --- | --- | --- | --- | --- |
| CN(C)CC1(COc2nc(N3CC4CCC(C3)N4)c(C#N)c(N3CC4(CCc5sc(N)c(C#N)c54)C3)n2)CC1(F)F (stereo not drawn) [Compound 74A, 2-amino-1′-[5-cyano-6-(3,8-diazabicyclo[3.2.1]octan-3-yl)-2-[[(1*)-1-[(dimethylamino)methyl]-2,2-difluoro-cyclopropyl]methoxy]pyrimidin-4-yl]spiro[5,6-dihydrocyclopenta[b]thiophene-4,3′-azetidine]-3-carbonitrile] | 8.00 to 9.00 | 8.00 to 9.00 | > 7.00 | – | – | – |
| N#Cc1c(N2C[C@H]3CC[C@@H](C2)N3)nc(OCc2ccn[nH]2)nc1N1CC2(CCc3sc(N)c(C#N)c32)C1 [Compound 79, 2-amino-1′-[5-cyano-6-[(1R,5S)-3,8-diazabicyclo[3.2.1]octan-3-yl]-2-(1H-pyrazol-5-ylmethoxy)pyrimidin-4-yl]spiro[5,6-dihydrocyclopenta[b]thiophene-4,3′-azetidine]-3-carbonitrile] | – | – | – | 7.00 to 8.00 | 7.00 to 8.00 | 6.00 to 7.00 |
| CN1CCN(CC2(COc3nc(N4C[C@H]5CC[C@@H](C4)N5)c(C#N)c(N4CC5(CCc6sc(N)c(C#N)c65)C4)n3)CC2)CC1=O [Compound 80, 2-amino-1′-[5-cyano-2-[[1-[(4-methyl-3-oxo-piperazin-1-yl)methyl]cyclopropyl]methoxy]-6-[(1R,5S)-3,8-diazabicyclo[3.2.1]octan-3-yl]pyrimidin-4-yl]spiro[5,6-dihydrocyclopenta[b]thiophene-4,3′-azetidine]-3-carbonitrile] | – | – | – | 7.00 to 8.00 | 8.00 to 9.00 | 6.00 to 7.00 |
| CO[C@H]1CN(CC2(COc3nc(N4C[C@H]5CC[C@@H](C4)N5)c(C#N)c(N4CC5(CCc6sc(N)c(C#N)c65)C4)n3)CC2)C[C@@H]1F [Compound 81, 2-amino-1′-[5-cyano-6-[(1R,5S)-3,8-diazabicyclo[3.2.1]octan-3-yl]-2-[[1-[[(3S,4S)-3-fluoro-4-methoxy-pyrrolidin-1-yl]methyl]cyclopropyl]methoxy]pyrimidin-4-yl]spiro[5,6-dihydrocyclopenta[b]thiophene-4,3′-azetidine]-3-carbonitrile] | – | – | – | 6.00 to 7.00 | 7.00 to 8.00 | 5.00 to 6.00 |
| Cc1nc(-c2nn3c(c2Cl)CN(c2nc(OC[C@@]45CCCN4C[C@H](F)C5)nc(N4CC5(CCc6sc(N)c(C#N)c65)C4)c2C#N)CCC3)n(C)n1 [Compound 85, 2-amino-1′-[6-[3-chloro-2-(2,5-dimethyl-1,2,4-triazol-3-yl)-4,6,7,8-tetrahydropyrazolo[1,5-a][1,4]diazepin-5-yl]-5-cyano-2-[[(2R,8S)-2-fluoro-1,2,3,5,6,7-hexahydropyrrolizin-8-yl]methoxy]pyrimidin-4-yl]spiro[5,6-dihydrocyclopenta[b]thiophene-4,3′-azetidine]-3-carbonitrile] | – | – | – | 6.00 to 7.00 | 7.00 to 8.00 | 4.00 to 5.00 |
| N#Cc1c(N2C[C@H]3CC[C@@H](C2)N3)nc(OCC2(CN3CCOCC3)CC2)nc1N1CC2(C=CCc3sc(N)c(C#N)c32)C1 [Compound 86, 2-amino-1′-[5-cyano-2-[[1-(morpholinomethyl)cyclopropyl]methoxy]-6-[(1R,5S)-3,8-diazabicyclo[3.2.1]octan-3-yl]pyrimidin-4-yl]spiro[7H-benzothiophene-4,3′-azetidine]-3-carbonitrile] | – | – | – | 7.00 to 8.00 | 8.00 to 9.00 | > 7.00 |
| CN(C)CC1(COc2nc(N3CCCn4nc(C(=O)N(C)C)c(Cl)c4C3)c(C#N)c(N3CC4(CCc5sc(N)c(C#N)c54)C3)n2)CC1(F)F (stereo not drawn) [Compound 87, 5-[6-(2-amino-3-cyano-spiro[5,6-dihydrocyclopenta[b]thiophene-4,3′-azetidine]-1′-yl)-5-cyano-2-[[1-[(dimethylamino)methyl]-2,2-difluoro-cyclopropyl]methoxy]pyrimidin-4-yl]-3-chloro-N,N-dimethyl-4,6,7,8-tetrahydropyrazolo[1,5-a][1,4]diazepine-2-carboxamide] | – | – | – | 7.00 to 8.00 | 8.00 to 9.00 | 5.00 to 6.00 |
| C[C@H](Oc1nc(N2C[C@H]3CC[C@@H](C2)N3)c(C#N)c(N2CC3(CCc4sc(N)c(C#N)c43)C2)n1)[C@@H]1CCCN1C [Compound 88, 2-amino-1′-[5-cyano-6-[(1R,5S)-3,8-diazabicyclo[3.2.1]octan-3-yl]-2-[(1S)-1-[(2S)-1-methylpyrrolidin-2-yl]ethoxy]pyrimidin-4-yl]spiro[5,6-dihydrocyclopenta[b]thiophene-4,3′-azetidine]-3-carbonitrile] | – | – | – | 5.00 to 6.00 | 5.00 to 6.00 | 4.00 to 5.00 |
| N#Cc1c(N2C[C@H]3CC[C@@H](C2)N3)nc(OCC2(CN3C[C@@H]4C[C@H]3CO4)CC2)nc1N1CC2(CCc3sc(N)c(C#N)c32)C1 [Compound 89, 2-amino-1′-[5-cyano-6-[(1R,5S)-3,8-diazabicyclo[3.2.1]octan-3-yl]-2-[[1-[[(1S,4S)-2-oxa-5-azabicyclo[2.2.1]heptan-5-yl]methyl]cyclopropyl]methoxy]pyrimidin-4-yl]spiro[5,6-dihydrocyclopenta[b]thiophene-4,3′-azetidine]-3-carbonitrile] | – | – | – | 7.00 to 8.00 | 7.00 to 8.00 | 6.00 to 7.00 |
| CN(C)C(=O)c1nn2c(c1Cl)CN(c1nc(OC[C@@]34CCCN3C[C@H](F)C4)nc(N3CC4(CCc5sc(N)c(C#N)c54)C3)c1C#N)CC(F)(F)C2 [Compound 91, 5-[6-(2-amino-3-cyano-spiro[5,6-dihydrocyclopenta[b]thiophene-4,3′-azetidine]-1′-yl)-5-cyano-2-[[(2R,8S)-2-fluoro-1,2,3,5,6,7-hexahydropyrrolizin-8-yl]methoxy]pyrimidin-4-yl]-3-chloro-7,7-difluoro-N,N-dimethyl-6,8-dihydro-4H-pyrazolo[1,5-a][1,4]diazepine-2-carboxamide] | – | – | – | 7.00 to 8.00 | 7.00 to 8.00 | 6.00 to 7.00 |
